Test results taken from EP4610269A1, “UROKINASE PLASMINOGEN ACTIVATOR SURFACE RECEPTOR (UPAR) LIGANDS FOR DIAGNOSTIC OR THERAPEUTIC USE” (3B Pharmaceuticals GmbH, priority 2024, dated 2025).
Like-named read-outs stand apart in the source and are kept apart here. Where a SMILES comes first, the peptide text is derived from it. Bridges are numbered along the chain shown (N, C = ends). [ ]: non-standard residue; d: D form. The star is where a group is joined. X4 = C[N+](C)(CCCC[C@H](NC(=O)CN1CCN(CC(=O)O)CCN(CC(=O)O)CCN(CC(=O)O)CC1)C(=O)*)CCCS(=O)(=O)[O-]; DOTA = O=C(O)CN1CCN(CC(=O)O)CCN(CC(=O)*)CCN(CC(=O)O)CC1; Pro(cis-4-F) = O=C(O)[C@@H]1C[C@H](F)CN1; Dopa = N[C@@H](Cc1ccc(O)c(O)c1)C(=O)O; Hyp = O=C(O)[C@@H]1C[C@@H](O)CN1; Pentanoyl(4-Me) = CC(C)CCC(=O)*; Butoxycarbonyl = CCCCOC(=O)*; Phg = N[C@H](C(=O)O)c1ccccc1; Ac6c = NC1(C(=O)O)CCCCC1; Nva = CCC[C@H](N)C(=O)O; Pentanoyl = CCCCC(=O)*

Tests used:
[1] = target: T1, uPAR-expressing HEC-265 human endometrial adenocarcinoma cells (Homo sapiens, UniProt Q03405); test: Competitive FACS binding assay; details: pIC50 category of FACS binding
T1 construct: Cell surface uPAR-expressing HEC-265 human endometrial adenocarcinoma cells; host or cells: HEC-265
Outline: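 Competitive displacement of a 10 nM biotinylated peptide from HEC-265 cells (1 h, 4 °C, PBS/1% BSA), detected via APC-streptavidin by flow cytometry. pIC50 from four-parameter logistic fit of median fluorescence versus concentration.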

human uPAR (uPAR-Fc) = target: T2, human uPAR (uPAR-Fc) (Homo sapiens, UniProt Q03405); test: Surface plasmon resonance (SPR) assay, single cycle kinetics; format: binding; details: pKD category for uPAR SPR activity assay, uPAR-Fc on Protein A-Chip, 25°C; for Kd: read-out: pKD CAT (converted)
T2 construct: comprising amino acids Leu23-Arg303 according to UniProt entry Q03405.1; purchased R&D Systems 10378-UK-100
Outline: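 uPAR-Fc (Leu23-Arg303 extracellular domains, human IgG1 Fc) captured on Protein A chip to ~2000 RU; single-cycle kinetics at 25°C in HEPES running buffer pH 7.4 with 0.1% DMSO. KD from double-referenced sensorgrams fitted to 1:1 Langmuir model, reported as pKD.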

T2 sequence (Q03405 23-303): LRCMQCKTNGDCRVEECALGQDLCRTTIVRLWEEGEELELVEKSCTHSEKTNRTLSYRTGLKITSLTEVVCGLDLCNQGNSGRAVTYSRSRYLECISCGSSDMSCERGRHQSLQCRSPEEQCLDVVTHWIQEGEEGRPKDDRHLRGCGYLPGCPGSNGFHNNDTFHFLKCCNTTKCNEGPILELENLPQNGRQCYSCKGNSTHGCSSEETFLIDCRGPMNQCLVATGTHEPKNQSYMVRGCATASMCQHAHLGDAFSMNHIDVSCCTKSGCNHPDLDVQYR
T1 sequence (Q03405 23-335): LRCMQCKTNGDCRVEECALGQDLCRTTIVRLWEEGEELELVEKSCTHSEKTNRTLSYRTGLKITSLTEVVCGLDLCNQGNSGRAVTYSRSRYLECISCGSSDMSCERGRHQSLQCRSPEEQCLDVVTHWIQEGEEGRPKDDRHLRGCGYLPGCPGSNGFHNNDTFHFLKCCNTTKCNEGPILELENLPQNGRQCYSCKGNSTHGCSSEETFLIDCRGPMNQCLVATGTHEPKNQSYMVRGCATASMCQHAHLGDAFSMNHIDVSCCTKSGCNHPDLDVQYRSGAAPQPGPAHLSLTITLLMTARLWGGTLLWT

CCCCC(=O)N[C@H]1CSSC[C@@H](C(N)=O)NC(=O)[C@H](CCC)NC(=O)[C@H]([C@@H](C)CC)NC(=O)[C@@H]2C[C@@H](O)CN2C(=O)[C@@H]2CCCN2C(=O)[C@H](c2ccccc2)NC(=O)[C@H](Cc2ccc(O)cc2)NC(=O)[C@H](CCC(N)=O)NC(=O)[C@H](CCCNC(=N)N)NC1=O [UPAR-203, Pent-[Cys-Arg-Gln-Tyr-Phg-Pro-Hyp-Ile-Nva-Cys]-NH2] (Pentanoyl-CRQY[Phg]P[Hyp]I[Nva]C-NH2; disulfide 1-10)
IC50 [1]: ≥ 126 nM
Kd (human uPAR (uPAR-Fc)): 10 to 100 nM

CCCCC(=O)N[C@H]1CSSC[C@@H](C(N)=O)NC(=O)[C@H](CCC)NC(=O)[C@H]([C@@H](C)CC)NC(=O)[C@@H]2C[C@@H](O)CN2C(=O)[C@@H]2CCCN2C(=O)[C@H](Cc2ccccc2)NC(=O)[C@H](Cc2ccc(O)cc2)NC(=O)[C@H](CCC(N)=O)NC(=O)[C@@H]2CCCN2C1=O [UPAR-361, Pent-[Cys-Pro-Gln-Tyr-Phe-Pro-Hyp-Ile-Nva-Cys]-NH2] (Pentanoyl-CPQYFP[Hyp]I[Nva]C-NH2; disulfide 1-10)
IC50 [1]: ≤ 10 nM
Kd (human uPAR (uPAR-Fc); single cycle kinetics): < 1.58 nM

CCCCOC(=O)N[C@H]1CSSC[C@@H](C(N)=O)NC(=O)[C@H](CCC)NC(=O)[C@H]([C@@H](C)CC)NC(=O)[C@@H]2C[C@@H](O)CN2C(=O)[C@@H]2C[C@H](F)CN2C(=O)[C@H](Cc2ccccc2)NC(=O)[C@H](Cc2ccc(O)c(O)c2)NC(=O)[C@H](CCCCNC(=O)[C@H](CCCC[N+](C)(C)CCCS(=O)(=O)[O-])NC(=O)CN2CCN(CC(=O)O)CCN(CC(=O)O)CCN(CC(=O)O)CC2)NC(=O)[C@H]([C@@H](C)O)NC1=O [UPAR-194, Butoc-[Cys-Thr-Lys(DOTA-Kzw)-Dopa-Phe-4Cfp-Hyp-Ile-Nva-Cys]-NH2] (Butoxycarbonyl-CTK(X4)[Dopa]F[Pro(cis-4-F)][Hyp]I[Nva]C-NH2; disulfide 1-10)
IC50 [1]: ≤ 10 nM
Kd (human uPAR (uPAR-Fc)): < 1.58 nM

CCCCC(=O)N[C@H]1CSSC[C@@H](C(N)=O)NC(=O)[C@H](CCC)NC(=O)[C@H](Cc2ccccc2)NC(=O)[C@@H]2C[C@@H](O)CN2C(=O)[C@@H]2CCCN2C(=O)[C@H](Cc2ccccc2)NC(=O)[C@H](Cc2ccc(O)cc2)NC(=O)[C@H](CCC(N)=O)NC(=O)[C@H](CCCNC(=N)N)NC1=O [UPAR-447, Pent-[Cys-Arg-Gln-Tyr-Phe-Pro-Hyp-Phe-Nva-Cys]-NH2] (Pentanoyl-CRQYFP[Hyp]F[Nva]C-NH2; disulfide 1-10)
IC50 [1]: ≤ 10 nM
Kd (human uPAR (uPAR-Fc); single cycle kinetics): < 1.58 nM

CCCCC(=O)N[C@H]1CSSC[C@@H](C(N)=O)NC(=O)[C@H](CCC)NC(=O)C2(CCCCC2)NC(=O)[C@@H]2C[C@@H](O)CN2C(=O)[C@@H]2CCCN2C(=O)[C@H](Cc2ccccc2)NC(=O)[C@H](Cc2ccc(O)cc2)NC(=O)[C@H](CCC(N)=O)NC(=O)[C@H](CCCNC(=N)N)NC1=O [UPAR-264, Pent-[Cys-Arg-Gln-Tyr-Phe-Pro-Hyp-Egz-Nva-Cys]-NH2] (Pentanoyl-CRQYFP[Hyp][Ac6c][Nva]C-NH2; disulfide 1-10)
IC50 [1]: ≤ 10 nM
Kd (human uPAR (uPAR-Fc)): < 1.58 nM

Butoc-[Cys-Cit-Lys(LuDOTA)-Tyr-Pcf-4Cfp-Hyp-Ile-Nva-Cys]-NH2 [UPAR-369]
pIC50 CAT [1]: A (pIC50 values ≥8.0)
pKD CAT (human uPAR (uPAR-Fc); single cycle kinetics): A (pKD values ≥ 8.8)

CC[C@H](C)[C@@H]1NC(=O)[C@H](CCCCNC(=O)CN2CCN(CC(=O)O)CCN(CC(=O)O)CCN(CC(=O)O)CC2)NC(=O)[C@@H]2CCCN2C(=O)[C@H](Cc2ccccc2)NC(=O)[C@H](Cc2ccc(O)cc2)NC(=O)[C@H](CCC(N)=O)NC(=O)[C@@H](C)NC(=O)[C@@H](NC(=O)CCC(C)C)CSSC[C@@H](C(N)=O)NC(=O)[C@H](CC(C)C)NC1=O [UPAR-414, iHex-[Cys-ala-Gln-Tyr-Phe-Pro-Lys(DOTA)-Ile-Leu-Cys]-NH2] ({Pentanoyl(4-Me)}-C[dA]QYFPK(DOTA)ILC-NH2; disulfide 1-10)
IC50 [1]: 12.6 to 31.6 nM
Kd (human uPAR (uPAR-Fc); single cycle kinetics): 10 to 100 nM

Pent-[Cys-Cit-Lys(LuDOTA)-Guf-Phe-Pro-Hyp-Ile-Nva-Cys]-NH2 [UPAR-350]
pIC50 CAT [1]: A (pIC50 values ≥8.0)
pKD CAT (human uPAR (uPAR-Fc); single cycle kinetics): A (pKD values ≥ 8.8)

CC[C@H](C)[C@@H]1NC(=O)[C@@H](C)NC(=O)[C@@H]2CCCN2C(=O)[C@H](Cc2ccccc2)NC(=O)[C@H](Cc2ccc(O)cc2)NC(=O)[C@H](CCC(N)=O)NC(=O)[C@H](C)NC(=O)[C@@H](NC(=O)CCC(C)C)CSSC[C@@H](C(N)=O)NC(=O)[C@H](CC(C)C)NC1=O [UPAR-168, iHex-[Cys-Ala-Gln-Tyr-Phe-Pro-ala-Ile-Leu-Cys]-NH2] ({Pentanoyl(4-Me)}-CAQYFP[dA]ILC-NH2; disulfide 1-10)
IC50 [1]: ≤ 10 nM
Kd (human uPAR (uPAR-Fc)): < 1.58 nM
